Reference: US20250304535A1, “KAT6 Inhibitors” (BeiGene Switzerland GmbH, priority 2024, published 2025)

Experiments:
[1] = target: Recombinant human KAT6A protein (497-780) (Homo sapiens (Human), UniProt Q92794); assay: KAT6A biochemical TR-FRET assay; details: histone H4 peptide 2000 nM, AcCoA 300 nM, enzyme 5 nM
[2] = tested on: histone H3K23 acetylation in U-2 OS cells; assay: Histone H3 lysine 23 acetylation assay in U-2 OS cells (high content analysis); format: cell-based; details: Homo sapiens, U2OS, 24 hrs exposure, H3K23ac level
How it was run: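 U-2 OS cells seeded overnight, then exposed 24 h to a 9-point compound dilution series; 0.1% DMSO medium as blank. Fixed, permeabilised, stained with anti-H3K23ac plus Alexa Fluor 647 secondary and DAPI; nuclear H3K23ac intensity read by high-content imaging. Inhibition = mean per-well cell intensity relative to on-plate blanks.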

[3] = target: Recombinant human KAT6B protein (657-1069) (Homo sapiens (Human), UniProt Q8WYB5); assay: KAT6B biochemical TR-FRET assay; details: histone H4 peptide 1000 nM, AcCoA 100 nM, enzyme 5 nM
Sequence of Recombinant human KAT6B protein (657-1069) (Q8WYB5 657-1069): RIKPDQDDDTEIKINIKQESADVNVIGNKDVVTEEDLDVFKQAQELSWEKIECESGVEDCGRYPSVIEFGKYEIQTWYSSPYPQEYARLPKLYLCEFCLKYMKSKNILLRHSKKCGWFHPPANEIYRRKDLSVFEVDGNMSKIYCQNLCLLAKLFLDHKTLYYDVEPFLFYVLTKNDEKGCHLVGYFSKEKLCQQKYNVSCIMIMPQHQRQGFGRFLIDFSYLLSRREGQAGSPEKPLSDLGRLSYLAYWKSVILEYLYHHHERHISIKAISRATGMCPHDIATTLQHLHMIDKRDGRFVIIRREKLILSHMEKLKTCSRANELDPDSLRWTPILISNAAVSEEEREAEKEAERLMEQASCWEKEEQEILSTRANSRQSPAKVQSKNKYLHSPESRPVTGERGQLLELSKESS

Sequence of Recombinant human KAT6A protein (497-780) (Q92794 497-780): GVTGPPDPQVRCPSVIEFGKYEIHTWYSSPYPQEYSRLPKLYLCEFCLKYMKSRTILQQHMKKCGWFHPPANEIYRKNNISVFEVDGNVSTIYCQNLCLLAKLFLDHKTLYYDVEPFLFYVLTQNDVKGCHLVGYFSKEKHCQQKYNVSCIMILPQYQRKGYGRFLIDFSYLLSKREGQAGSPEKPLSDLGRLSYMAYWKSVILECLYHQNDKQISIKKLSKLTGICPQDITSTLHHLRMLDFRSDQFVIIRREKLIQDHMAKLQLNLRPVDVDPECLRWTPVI

SMILES | IC50 [1] | IC50 [2] | IC50 [3]
C=Cc1cc(C(=O)NS(=O)(=O)c2c(OC)ccc3c2OC(C)(C)C3)ccc1Cn1cccn1 [Example C44, 4-((1H-pyrazol-1-yl)methyl)-N-((6-methoxy-2,2-dimethyl-2,3-dihydrobenzofuran-7-yl)sulfonyl)-3-vinylbenzamide] | ≤ 5 nM | ≤ 10 nM | ≤ 5 nM
COc1cc(C(=O)NS(=O)(=O)c2c(OC)ccc3c2OC(C)(C)C3)ccc1Cn1cccn1 [Example C45, 4-((1H-pyrazol-1-yl)methyl)-3-methoxy-N-((6-methoxy-2,2-dimethyl-2,3-dihydrobenzofuran-7-yl)sulfonyl)benzamide] | ≤ 5 nM | ≤ 10 nM | ≤ 5 nM
COc1ccc2c(c1S(=O)(=O)NC(=O)c1ccc(Cn3cccn3)c(C3CC3)n1)OC(C)(C)C2 [Example C46, 5-((1H-pyrazol-1-yl)methyl)-6-cyclopropyl-N-((6-methoxy-2,2-dimethyl-2,3-dihydrobenzofuran-7-yl)sulfonyl)picolinamide] | ≤ 5 nM | ≤ 10 nM | ≤ 5 nM
COc1ccc2c(c1S(=O)(=O)NC(=O)c1ccc(Cn3cccn3)c(C3CC3)n1)OCC2(C)C [Example C47, 5-((1H-pyrazol-1-yl)methyl)-6-cyclopropyl-N-((6-methoxy-3,3-dimethyl-2,3-dihydrobenzofuran-7-yl)sulfonyl)picolinamide] | ≤ 5 nM | ≤ 10 nM | ≤ 5 nM
COc1ccc(C(C)(C)C)nc1S(=O)(=O)NC(=O)c1ccc(Cn2cccn2)c(C2CC2)n1 [Example C48, 5-((1H-pyrazol-1-yl)methyl)-N-((6-(tert-butyl)-3-methoxypyridin-2-yl)sulfonyl)-6-cyclopropylpicolinamide] | ≤ 5 nM | ≤ 10 nM | ≤ 5 nM
COc1cc(C(=O)NS(=O)(=O)c2c(OC)ccc3c2OCC3(C)C)ccc1Cn1cccn1 [Example C49, 4-((1H-pyrazol-1-yl)methyl)-3-methoxy-N-((6-methoxy-3,3-dimethyl-2,3-dihydrobenzofuran-7-yl)sulfonyl)benzamide] | ≤ 5 nM | ≤ 10 nM | ≤ 5 nM
C=Cc1cc(C(=O)NS(=O)(=O)c2c(OC)ccc3c2OCC3(C)C)ccc1Cn1cccn1 [Example C50, 4-((1H-pyrazol-1-yl)methyl)-N-((6-methoxy-3,3-dimethyl-2,3-dihydrobenzofuran-7-yl)sulfonyl)-3-vinylbenzamide] | ≤ 5 nM | ≤ 10 nM | ≤ 5 nM
CCc1cc(C(=O)NS(=O)(=O)c2c(OC)ccc3c2OCC3(C)C)ccc1Cn1cccn1 [Example C51, 4-((1H-pyrazol-1-yl)methyl)-3-ethyl-N-((6-methoxy-3,3-dimethyl-2,3-dihydrobenzofuran-7-yl)sulfonyl)benzamide] | ≤ 5 nM | ≤ 10 nM | ≤ 5 nM
CCc1cc(C(=O)NS(=O)(=O)c2c(OC)ccc3c2OC(C)(C)C3)ccc1Cn1cccn1 [Example C52, 4-((1H-pyrazol-1-yl)methyl)-3-ethyl-N-((6-methoxy-2,2-dimethyl-2,3-dihydrobenzofuran-7-yl)sulfonyl)benzamide] | ≤ 5 nM | ≤ 10 nM | ≤ 5 nM
CCc1nc(C(=O)NS(=O)(=O)c2c(OC)ccc3c2OCC3(C)C)ccc1Cn1cccn1 [Example C53, 5-((1H-pyrazol-1-yl)methyl)-6-ethyl-N-((6-methoxy-3,3-dimethyl-2,3-dihydrobenzofuran-7-yl)sulfonyl)picolinamide] | ≤ 5 nM | ≤ 10 nM | ≤ 5 nM
COc1ccc(C(C)(C)C(F)(F)F)nc1S(=O)(=O)NC(=O)c1ccc(Cn2cccn2)c(OC)n1 [Example C54, 5-((1H-pyrazol-1-yl)methyl)-6-methoxy-N-((3-methoxy-6-(1,1,1-trifluoro-2-methylpropan-2-yl)pyridin-2-yl)sulfonyl)picolinamide] | ≤ 5 nM | ≤ 10 nM | ≤ 5 nM
COc1ccc2c(c1S(=O)(=O)NC(=O)c1ccc(Cn3cccn3)c(OC)n1)OCC(C)(C)C2 [Example C55, 5-((1H-pyrazol-1-yl)methyl)-6-methoxy-N-((7-methoxy-3,3-dimethylchroman-8-yl)sulfonyl)picolinamide] | ≤ 5 nM | ≤ 10 nM | ≤ 5 nM
[2H]C([2H])([2H])Oc1nc(C(=O)NS(=O)(=O)c2nc(C(C)(C)C)ccc2OC)ccc1Cn1cccn1 [Example C63, 5-((1H-pyrazol-1-yl)methyl)-N-((6-(tert-butyl)-3-methoxypyridin-2-yl)sulfonyl)-6-(methoxy-d3)picolinamide] | ≤ 5 nM | ≤ 10 nM | ≤ 5 nM
[2H]C([2H])([2H])Oc1nc(C(=O)NS(=O)(=O)c2c(OC)ccc3c2OCC3(C)C)ccc1Cn1cccn1 [Example C64, 5-((1H-pyrazol-1-yl)methyl)-6-(methoxy-d3)-N-((6-methoxy-3,3-dimethyl-2,3-dihydrobenzofuran-7-yl)sulfonyl) picolinamide] | ≤ 5 nM | ≤ 10 nM | ≤ 5 nM
[2H]C([2H])([2H])Oc1nc(C(=O)NS(=O)(=O)c2c(OC)ccc3c2OC(C)(C)C3)ccc1Cn1cccn1 [Example C65, 5-((1H-pyrazol-1-yl)methyl)-6-(methoxy-d3)-N-((6-methoxy-2,2-dimethyl-2,3-dihydrobenzofuran-7-yl)sulfonyl) picolinamide] | ≤ 5 nM | ≤ 10 nM | ≤ 5 nM
[2H]C([2H])([2H])Oc1ccc(C(C)(C)C)nc1S(=O)(=O)NC(=O)c1ccc(Cn2cccn2)c(OC)n1 [Example C66, 5-((1H-pyrazol-1-yl)methyl)-N-((6-(tert-butyl)-3-(methoxy-d3)pyridin-2-yl)sulfonyl)-6-methoxy-picolinamide] | ≤ 5 nM | ≤ 10 nM | ≤ 5 nM

The remaining lines, values ahead:

IC50 [1] | IC50 [2] | IC50 [3] | SMILES
≤ 5 nM | ≤ 10 nM | ≤ 5 nM | COc1ccc2c(c1S(=O)(=O)NC(=O)c1ccc(Cn3cccn3)c(OC)n1)OC(C)(C)C2 [Example C42, 5-((1H-pyrazol-1-yl)methyl)-6-methoxy-N-((6-methoxy-2,2-dimethyl-2,3-dihydrobenzofuran-7-yl)sulfonyl)picolinamide]
≤ 5 nM | ≤ 10 nM | ≤ 5 nM | COc1ccc2c(c1S(=O)(=O)NC(=O)c1ccc(Cn3cccn3)c(OC)n1)OCC2(C)C [Example C43, 5-((1H-pyrazol-1-yl)methyl)-6-methoxy-N-((6-methoxy-3,3-dimethyl-2,3-dihydrobenzofuran-7-yl)sulfonyl)picolinamide]
≤ 5 nM | ≤ 10 nM | ≤ 5 nM | COc1ccc(C2(OC)CC2)cc1S(=O)(=O)NC(=O)c1ccc(Cn2cccn2)c(OC)n1 [Example C56, 5-((1H-pyrazol-1-yl)methyl)-6-methoxy-N-((2-methoxy-5-(1-methoxycyclopropyl)phenyl)sulfonyl)picolinamide]
≤ 5 nM | ≤ 10 nM | ≤ 5 nM | COCC(C)(C)c1ccc(OC)c(S(=O)(=O)NC(=O)c2ccc(Cn3cccn3)c(OC)n2)c1 [Example C57, 5-((1H-pyrazol-1-yl)methyl)-6-methoxy-N-((2-methoxy-5-(1-methoxy-2-methylpropan-2-yl)phenyl)sulfonyl)picolinamide]
≤ 5 nM | ≤ 10 nM | ≤ 5 nM | COc1ccc2c(c1S(=O)(=O)NC(=O)c1ccc(Cn3cccn3)c(OC)n1)OCC2 [Example C58, 5-((1H-pyrazol-1-yl)methyl)-6-methoxy-N-((6-methoxy-2,3-dihydrobenzofuran-7-yl)sulfonyl)picolinamide]
≤ 5 nM | ≤ 10 nM | ≤ 5 nM | COc1ccc(C2(C(F)(F)F)CC2)cc1S(=O)(=O)NC(=O)c1ccc(Cn2cccn2)c(OC)n1 [Example C59, 5-((1H-pyrazol-1-yl)methyl)-6-methoxy-N-((2-methoxy-5-(1-(trifluoromethyl)cyclopropyl)phenyl)sulfonyl)picolinamide]
≤ 5 nM | ≤ 10 nM | ≤ 5 nM | COc1ccc2c(c1S(=O)(=O)NC(=O)c1ccc(Cn3cccn3)c(OC)n1)OCC21CCC1 [Example C60, 5-((1H-pyrazol-1-yl)methyl)-6-methoxy-N-((6-methoxy-2H-spiro[benzofuran-3,1′-cyclobutan]-7-yl)sulfonyl)picolinamide]
≤ 5 nM | ≤ 10 nM | ≤ 5 nM | COc1cc2c(cc1S(=O)(=O)NC(=O)c1ccc(Cn3cccn3)c(OC)n1)C(C)(C)CO2 [Example C61, 5-((1H-pyrazol-1-yl)methyl)-6-methoxy-N-((6-methoxy-3,3-dimethyl-2,3-dihydrobenzofuran-5-yl)sulfonyl)picolinamide]
≤ 5 nM | ≤ 10 nM | ≤ 5 nM | COc1ccc(N2CC3CCC(C2)O3)cc1S(=O)(=O)NC(=O)c1ccc(Cn2cccn2)c(OC)n1 [Example C62, 5-((1H-pyrazol-1-yl)methyl)-N-((5-(8-oxa-3-azabicyclo[3.2.1]octan-3-yl)-2-methoxyphenyl)sulfonyl)-6-methoxy-picolinamide]
≤ 5 nM | ≤ 10 nM | ≤ 5 nM | COc1ccc(C2(OC)COC2)cc1S(=O)(=O)NC(=O)c1ccc(Cn2cccn2)c(OC)n1 [Example C67, 5-((1H-pyrazol-1-yl)methyl)-6-methoxy-N-((2-methoxy-5-(3-methoxyoxetan-3-yl)phenyl)sulfonyl) picolinamide]
5 to 50 nM | ≤ 10 nM | ≤ 5 nM | COc1ccccc1S(=O)(=O)NC(=O)c1ccc(Cn2cccn2)c(OC)n1 [Example C68, 5-((1H-pyrazol-1-yl)methyl)-6-methoxy-N-((2-methoxyphenyl)sulfonyl) picolinamide]
